1 molecule from patent US20050147662A1, “Compounds and compositions for delivering active agents” (Emisphere Technologies, Inc., priority 2003, published 2005) can be followed below.

For `CN(CCCCCCCC(=O)O)C(=O)c1ccccc1O` [Compound 1, 8-[(2-Hydroxy-benzoyl)-methyl-amino]-octanoic acid], the melting point – broadly, the temperature of the solid-liquid transition – lay within 85 to 88 °C.
